Values joined by “and” are separate entries in the source; they are usually repeats but may differ in a detail not shown here. Equal values may be shown once.
Experiments:
RIPK2 = assay: In vivo RIPK2 degradation in rat (PBMCs isolated from blood, Western blot); settings: for RIPK2: fig 5e, individual rats 6-10, time 0 = 100; for RIPK2 (time 0 = 100): rats 1-4, fig 5c
Method: Rat PK/PD studies: On arrival, all rats were housed in a plastic solid bottom cage in groups of 2–3 with access to food and water ad libitum and under a 12 h light–dark cycle. Male CD or Wistar Han rats (7–9 weeks old, Charles River UK Ltd.) were randomly allocated to treatment groups upon arrival. Female CD rats (7–8 weeks old on arrival, Charles River Ltd.) were placed into groups using a randomization schedule based on body weight prior to the study start. All animals were acclimatized for a minimum of one week prior to the experiment commencing.
Subcutaneous PROTAC solution formulations were prepared on the day of dosing as outlined below and filtered through a 0.22 µm Millex PVDF filter (Millipore) prior to PROTAC administration. PROTAC 4 was dissolved in saline with the pH adjusted to 5.0 with sodium hydroxide (1 M). […].
Ex vivo stimulation of rat blood with L18-MDP for PD: PPD blood samples taken prior to PROTAC administration or at fixed timepoints post PROTAC administration through the course of the study, were treated ex vivo with 100 ng/mL L18-MDP (Invivogen) or vehicle (0.1% DMSO) and incubated for 4 h. Following centrifugation, plasma was collected for cytokines analysis as detailed in cytokines assay section. Additionally, RIPK2 levels were determined in PBMCs isolated from blood and where collected, in sampled colon tissue as described in the text.
Blood was mixed with optiPREP (Sigma) and following centrifugation at 1300 × g the PBMCs layer was collected. For in vivo studies, RIPK2 levels were determined immediately via immunoblotting, whereas for in vitro studies PBMCs were treated as detailed in the in vitro treatment section.
Statistics and reproducibility: All data were represented as percentage of the control sample: DMSO treated cells for the in vitro assays and the pre-dose or vehicle sample for the in vivo experiments.
(§1) For in vivo studies, RIPK2:tubulin ratios and cytokine levels from each individual experiment were analysed either using a One-way ANOVA with Dunnet’s post-test or a two way ANOVA using GraphPad Prism 5.0.4 to determine statistical significance with 95% confidence levels.

cIAP2 = molecular target: T1, cIAP2 (Homo sapiens, UniProt Q13489); assay: cIAP2 levels in human PBMCs, 24 h, capillary immunoassay; type: cell-based; settings: up to 1uM
T1 construct: endogenous in cells; host or cells: primary human PBMCs
Method: Where the assessment of cytokines was performed, L18-MDP was added to the cell culture media (1 μg/ml) or to the rat blood samples (100 ng/ml) and samples were incubated for up to 4 h. For human blood, 250 ng/ml MDP (Invivogen) was added following compound treatment and the samples were further incubated for 5 h. Samples were them spun down at 1000 g and the cell culture supernatant, plasma or serum were collected for cytokines assessment, while cell pellets were used for RIPK2 and/or cIAP1, cIAP2, and XIAP levels analysis via immunoblotting.
Simple Western immunoassay: Cell lysates were mixed with 5× concentrated master mix (Protein Simple) and denatured at 95 °C on a heat block for 5 min together with the provided ladder (Protein Simple). Antibodies were diluted in the provided buffer as following: anti-RIPK2 (1:10 or 1:50), anti-cIAP1(1:10), anti-cIAP2 (1:10), anti-XIAP (1:10), mouse anti-β-actin (Abcam - 1:1000), rabbit anti-β-actin (Abcam - 1:50) and anti-vinculin (1:100). […] All samples were analyzed using the associated Compass software 3.1.7. […]
Cell viability was assessed by using Cell Titer
Kit (Promega) according to the manufacturer’s instructions. Samples were analysed using […]

[1] = test system: L18-MDP-induced cytokine release; assay: In vivo L18-MDP acute inflammation model, serum cytokines (TNFα, IL-6, IL-8); parameters: species or system rat; cytokine level (fig 6a) / cytokine level (fig 6b) / cytokine level (fig 6c): unit not given here; settings: for cytokine level (fig 6a) / cytokine level (fig 6b) / cytokine level (fig 6c): serum, individual rats, beside L18-MDP control;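 for cytokine level (fig 6a): time is length of PROTAC pretreatment before a 2 h L18-MDP challenge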;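 for cytokine level (fig 6b): time is length of PROTAC pretreatment before a 2 h L18-MDP challenge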;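 for cytokine level (fig 6c): time is length of PROTAC pretreatment before a 2 h L18-MDP challenge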
Method: In vivo L18-MDP administration to rodents results in an acute inflammatory response characterised by the rapid production of inflammatory cytokines. […]. […]. Blood concentrations of 6 and 7 tracked closely and dropped below the LLQ after 24 h.
. Cytokine levels were determined in serum generated from the terminal blood samples and in tissue lysates as detailed below.
Cytokine measurement assay: Cytokine levels were measured in rat plasma or rat PBMCs cell culture supernatants using rat V-Plex TNFα, in human plasma or human PBMCs cell culture supernatants with either TNFα tissue culture or 7-plex kit. Rat serum and tissues samples from the in vivo L18-MDP acute inflammation model were analyzed using the rat TNFα, Il-6 and IL-8 U-Plex kits. All kits provided by Meso Scale Discovery (MSD). Levels of cytokines spontaneously released from human colon biopsies cell culture supernatants were measured using Human IL-1 beta/IL-1F2 DuoSet ELISA (Bio-techne), Human IL-6 ELISA (Immunotools) and Human TNF-alpha DuoSet ELISA (Bio-techne). All samples were processed accordingly to the manufacturer’s instructions. The MSD plates were analyzed using the MSD sector imager 6000 plate reader and cytokines concentration (pg/ml) was obtained by using the MSD DISCOVERY WORKBENCH software version 4.0.12.1
as §1

Caspases 3 and 7 = assay: Caspase 3/7 activation in human PBMCs (Caspase-Glo 3/7), 24 h

T1 sequence (Q13489 whole entry): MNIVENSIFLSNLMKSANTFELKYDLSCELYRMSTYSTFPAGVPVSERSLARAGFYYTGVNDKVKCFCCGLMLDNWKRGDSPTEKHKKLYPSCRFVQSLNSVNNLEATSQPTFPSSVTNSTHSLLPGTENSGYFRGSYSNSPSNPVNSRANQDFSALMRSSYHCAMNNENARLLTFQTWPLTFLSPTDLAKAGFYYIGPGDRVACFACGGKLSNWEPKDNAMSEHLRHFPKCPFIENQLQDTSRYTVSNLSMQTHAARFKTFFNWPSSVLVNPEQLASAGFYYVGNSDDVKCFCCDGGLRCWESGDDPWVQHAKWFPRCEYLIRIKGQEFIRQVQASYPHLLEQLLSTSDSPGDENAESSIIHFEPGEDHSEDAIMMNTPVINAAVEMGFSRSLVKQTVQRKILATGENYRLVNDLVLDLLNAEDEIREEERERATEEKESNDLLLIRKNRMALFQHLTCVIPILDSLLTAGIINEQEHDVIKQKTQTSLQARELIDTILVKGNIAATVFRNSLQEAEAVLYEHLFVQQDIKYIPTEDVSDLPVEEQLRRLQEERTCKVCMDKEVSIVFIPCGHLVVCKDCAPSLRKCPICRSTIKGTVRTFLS

CN[C@@H](C)C(=O)N[C@H](C(=O)N1CCC[C@H]1c1nc(C(=O)c2ccc(F)cc2)cs1)C1CCN(C(=O)c2cnc(N3CCN(CCOc4cc5ncnc(Nc6n[nH]c(C)c6C)c5cc4S(=O)(=O)C(C)(C)C)CC3)nc2)CC1 [PROTAC 4]
RIPK2 level vs pre-dose, individual rat (RIPK2; 1 mg/kg SC, 14-day study, 8 h): 71.55% and 45.26% and 58.63% and 60.59% and 55.33%
RIPK2 level vs pre-dose, individual rat (RIPK2; 1 mg/kg SC, 14-day study, 72 h): 64.81% and 59.31% and 60.99% and 66.83% and 64.49%
RIPK2 level vs pre-dose, individual rat (RIPK2; 1 mg/kg SC, 14-day study, 240 h): 112.79% and 70.63% and 104.75% and 126.83% and 102.52%
RIPK2 level vs pre-dose, individual rat (RIPK2; 5 mg/kg SC, 14-day study, 8 h): 41.85% and 45.44% and 41.77% and 41.32% and 53.21%
RIPK2 level vs pre-dose, individual rat (RIPK2; 5 mg/kg SC, 14-day study, 72 h): 34.61% and 30.18% and 38.68% and 37.78% and 36.11%
RIPK2 level vs pre-dose, individual rat (RIPK2; 5 mg/kg SC, 14-day study, 240 h): 87.11% and 99.39% and 92.18% and 103.23% and 99.62%
RIPK2 level vs pre-dose, individual rat (RIPK2; 20 mg/kg SC single dose, 7-day study, 8 h): 28.87% and 26.27% and 38.47% and 28.32% and 30.61%
RIPK2 level vs pre-dose, individual rat (RIPK2; 20 mg/kg SC single dose, 7-day study, 24 h): 18.69% and 14.21% and 28.44% and 16.94% and 23.48%
RIPK2 level vs pre-dose, individual rat (RIPK2; 20 mg/kg SC single dose, 7-day study, 72 h): 6.86% and 4.61% and 6.88% and 8.62% and 8.55%
RIPK2 level vs pre-dose, individual rat (RIPK2; 20 mg/kg SC single dose, 7-day study, 168 h): 12.52% and 6.26% and 20.35% and 12.51% and 16.81%
RIPK2 level vs pre-dose, individual rat (RIPK2; 20 mg/kg SC, 14-day study, 8 h): 37.50% and 45.03% and 47.72% and 58.85% and 77.11%
RIPK2 level vs pre-dose, individual rat (RIPK2; 20 mg/kg SC, 14-day study, 72 h): 13.52% and 12.63% and 25.66% and 9.20% and 12.50%
RIPK2 level vs pre-dose, individual rat (RIPK2; 20 mg/kg SC, 14-day study, 240 h): 60.06% and 118.48% and 58.34% and 98.90% and 86.42%
RIPK2 degradation (RIPK2; rat, 14-day study, all dose levels (1, 5, 20 mg/kg SC), 8 h): 40–60%
RIPK2 protein levels, in words (RIPK2; rat, 14-day study, each dose group, 240 h): returned to baseline levels
RIPK2 degradation (RIPK2; rat, single 20 mg/kg SC, 72 h): > 80%
RIPK2 degradation (RIPK2; rat, single 20 mg/kg SC, 168 h): > 80%

CN[C@@H](C)C(=O)N[C@H](C(=O)N1C[C@@H](NC(=O)c2cnc(N3CCN(CCCOc4cc5ncnc(Nc6n[nH]c(C)c6C)c5cc4S(=O)(=O)C(C)(C)C)CC3)cn2)C[C@H]1C(=O)Nc1c(F)cccc1F)C(C)(C)C [PROTAC 6]
change in cIAP2 protein levels, in words (cIAP2): no change in protein levels
RIPK2 level (time 0 = 100), unlabelled cell under rat 8 (RIPK2; 0.005 mg/kg, equals the mean of the four other rats at 24 h, fig 5a): 92.1904
RIPK2 level (time 0 = 100) (RIPK2; 0.005 mg/kg, time 24 h, rats 6-10, fig 5a): 71.58 and 92.75 and 127.25 and 77.18
RIPK2 level (time 0 = 100) (RIPK2; 0.005 mg/kg, time 48 h, rats 6-10, fig 5a): 107.66 and 189.11 and 139.36 and 104.71 and 114.34
RIPK2 level (time 0 = 100) (RIPK2; 0.05 mg/kg, time 6 h, rats 11-15, fig 5a): 60.71 and 118.09 and 89.04 and 78.70 and 85.87
RIPK2 level (time 0 = 100) (RIPK2; 0.05 mg/kg, time 24 h, rats 11-15, fig 5a): 70.75 and 59.91 and 86.01 and 67.12 and 70.61
RIPK2 level (time 0 = 100) (RIPK2; 0.5 mg/kg, time 72 h, rats 16-20, fig 5a): 25.93 and 26.14 and 14.54 and 23.73 and 19.84
RIPK2 (RIPK2; time 24 h): 41.32 and 46.91 and 38.86 and 44.83 and 39.94
RIPK2 (RIPK2; time 72 h): 55.66 and 38.00 and 35.30 and 41.29 and 38.74
RIPK2 degradation (RIPK2; rat, 0.05 mg/kg/day QD SC, last time point): > 70%
RIPK2 degradation (RIPK2; rat, 0.5 mg/kg/day QD SC, 24 h): ~ 70%
RIPK2 degradation (RIPK2; rat, 0.5 mg/kg/day QD SC, last time point after third dose): > 90%
effect on RIPK2 levels, in words (RIPK2; rat, single 0.005 mg/kg SC): no significant effect
effect on RIPK2 protein levels, in words (RIPK2; rat, single 0.05 mg/kg SC): did not have a statistically significant effect
RIPK2 degradation (RIPK2; rat, single 0.5 mg/kg SC, 6 h post-dose): 53 ± 9%
RIPK2 degradation (RIPK2; rat, single 0.5 mg/kg SC, 48 h): 78 ± 5%
RIPK2 (time 0 = 100) (RIPK2; time 6 h): 85.25 and 86.14 and 86.72 and 88.07
RIPK2 (time 0 = 100) (RIPK2; time 24 h): 71.45 and 57.80 and 52.77 and 57.74
RIPK2 (time 0 = 100) (RIPK2; time 30 h): 42.20 and 43.44 and 40.14 and 48.21
RIPK2 (time 0 = 100) (RIPK2; time 48 h): 32.57 and 27.38 and 24.98 and 36.77
RIPK2 (time 0 = 100) (RIPK2; time 54 h): 24.47 and 24.71 and 23.45 and 32.20
inhibition of serum cytokines ([1]; rat, 0.3 mg/kg SC, intravenous L18-MDP challenge, first three days): > 75%
cytokine level (fig 6a) ([1]; time 6 h): 18.49 (2×) and 16.66 and 19.87 and 20.63
cytokine level (fig 6b) ([1]; time 6 h): 1.67 and 2.89 and 2.19 and 1.98 and 1.58
cytokine level (fig 6c) ([1]; time 6 h): 4 (3×) and 5 and 3
cytokine level (fig 6a) ([1]; time 24 h): 17.80 and 19.20 and 17.38 and 15.28 and 17.94
cytokine level (fig 6b) ([1]; time 24 h): 3.64 and 5.77 and 5.56 and 2.08 and 8.31
cytokine level (fig 6c) ([1]; time 24 h): 1 (3×) and 2 (2×)
cytokine level (fig 6a) ([1]; time 72 h): 19.88 and 25.30 and 22.33 and 26.08 and 26.21
cytokine level (fig 6b) ([1]; time 72 h): 18.18 and 42.78 and 20.80 and 21.32 and 12.42
cytokine level (fig 6c) ([1]; time 72 h): 19 and 9 and 13 and 7 and 24
cytokine level (fig 6a) ([1]; time 240 h): 63.85 and 82.37 and 43.93 and 24.16 and 36.40
cytokine level (fig 6b) ([1]; time 240 h): 64.23 and 50.00 and 38.00 and 38.38 and 36.37
cytokine level (fig 6c) ([1]; time 240 h): 28 and 68 and 85 and 81 and 23
cytokine level (fig 6a) ([1]; time 408 h): 65.92 and 78.49 and 54.66 and 71.18 and 46.33
cytokine level (fig 6b) ([1]; time 408 h): 61.45 and 97.28 and 63.67 and 57.26 and 26.18
cytokine level (fig 6c) ([1]; time 408 h): 30 and 38 and 69 and 58 and 40
effect on caspases 3/7 activation, in words (Caspases 3 and 7): no
